For 9 molecules, IC50 results are on record in patent US9776976B2, “Triazolone compounds and uses thereof” (Inception 2, Inc., priority 2013, dated 2017).

Holding throughout (type): cell-based
The target in test [1] is T1, Human PPARα (Homo sapiens, UniProt Q07869).
T1 construct: host or cells: proprietary non-human mammalian cells
T1 sequence (Q07869 1-468): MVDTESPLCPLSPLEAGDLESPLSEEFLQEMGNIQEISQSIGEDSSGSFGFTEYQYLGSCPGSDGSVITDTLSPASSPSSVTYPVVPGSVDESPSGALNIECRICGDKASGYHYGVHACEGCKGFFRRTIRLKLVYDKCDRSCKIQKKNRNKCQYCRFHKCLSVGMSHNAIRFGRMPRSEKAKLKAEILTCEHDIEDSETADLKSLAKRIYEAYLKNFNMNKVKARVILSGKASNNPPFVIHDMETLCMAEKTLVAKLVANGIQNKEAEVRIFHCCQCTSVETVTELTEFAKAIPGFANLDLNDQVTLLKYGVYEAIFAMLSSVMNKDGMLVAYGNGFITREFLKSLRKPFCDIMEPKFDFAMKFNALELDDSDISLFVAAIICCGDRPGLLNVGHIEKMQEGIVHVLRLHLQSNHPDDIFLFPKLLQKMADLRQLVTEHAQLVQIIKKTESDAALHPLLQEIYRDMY
As to the kind of experiment: Human PPARα Reporter Assay (luciferase, Indigo Biosciences). As to conditions: antagonist mode, reporter cells, overnight incubation. The method, then: Human PPARα Reporter Assay The screening of test compounds for agonist or antagonist activities against human PPARα receptors was performed using a commercial kit, Human PPARα Reporter Assay System (Indigo Biosciences, Cat. #IB00111). This nuclear receptor assay system utilizes proprietary non-human mammalian cells engineered to provide constitutive, high-level expression of Human PPARα. Because these cells incorporate a PPARα-responsive luciferase reporter gene, quantifying expressed luciferase activity provides a sensitive surrogate measure of PPARα activity in the treated cells. The primary application of this reporter assay system is in the screening of test samples to quantify any functional activity, either agonist or antagonist, that they may exert against human PPARα. […] Briefly, reporter cells are dispensed into wells of the assay plate and then immediately dosed with test compounds. Following an overnight incubation, the treatment media is discarded and Luciferase Detection Reagent (LDR) is added. The intensity of light emission from the ensuing luciferase reaction provides a sensitive measure that is directly proportional to the relative level of PPARα activation in the reporter cells.
For orientation: A reporter such as luciferase makes a cellular process visible.

For test [2], the target named is T2, human PPAR β/δ (Homo sapiens, UniProt Q03181).
T2 construct: host or cells: engineered reporter cells (analogous to the PPARα kit)
T2 sequence (Q03181 1-441): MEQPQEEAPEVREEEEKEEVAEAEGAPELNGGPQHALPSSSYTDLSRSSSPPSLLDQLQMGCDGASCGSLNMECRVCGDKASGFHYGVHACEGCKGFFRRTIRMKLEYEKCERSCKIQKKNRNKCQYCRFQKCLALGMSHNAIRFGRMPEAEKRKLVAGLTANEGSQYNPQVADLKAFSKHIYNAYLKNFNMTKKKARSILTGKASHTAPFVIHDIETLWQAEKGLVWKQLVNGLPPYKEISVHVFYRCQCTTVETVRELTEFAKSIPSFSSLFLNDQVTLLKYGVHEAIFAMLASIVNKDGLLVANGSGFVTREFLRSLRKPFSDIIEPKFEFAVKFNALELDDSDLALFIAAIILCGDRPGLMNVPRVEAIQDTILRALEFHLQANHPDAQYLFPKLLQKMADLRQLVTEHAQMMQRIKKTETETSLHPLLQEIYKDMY
The test can be described thus: Human PPAR β/δ reporter assay (luciferase, Indigo Biosciences kit). As to conditions: antagonist mode, agonist at ~EC80; read-out: PPARδ Luciferase IC50. The method, then: (§1) Target Selectivity Assays
(§2) To determine species selectivity, a Mouse PPARα Reporter Assay System was used (Indigo Biosciences, Cat. #M00111). Activity of test compounds to antagonize or agonize other isoforms of human PPAR, for example β/δ and γ, were assessed using the corresponding kits from Indigo Biosciences (Cat. #IB00121 and #IB00101, respectively). In addition to PPAR activity, compounds were also screened for activity against other nuclear hormone receptors including Estrogen Receptor β, Glucocorticoid Receptor and Thyroid Receptor β using commercially available kits (Indigo Biosciences, Cat. #IB00411, IB00201 and IB01101, respectively). Each assay system from Indigo Biosciences uses technology analogous to the human PPARα kit, with the variance being that the cells used for each assay were engineered to over-express the receptor of interest. In addition, the appropriate receptor agonist (included with each kit) was used at ˜EC80 for assays in which antagonist potency was being assessed.

Test [3] has as its target T3, human PPAR γ (Homo sapiens, UniProt P37231).
T3 sequence (P37231 1-505): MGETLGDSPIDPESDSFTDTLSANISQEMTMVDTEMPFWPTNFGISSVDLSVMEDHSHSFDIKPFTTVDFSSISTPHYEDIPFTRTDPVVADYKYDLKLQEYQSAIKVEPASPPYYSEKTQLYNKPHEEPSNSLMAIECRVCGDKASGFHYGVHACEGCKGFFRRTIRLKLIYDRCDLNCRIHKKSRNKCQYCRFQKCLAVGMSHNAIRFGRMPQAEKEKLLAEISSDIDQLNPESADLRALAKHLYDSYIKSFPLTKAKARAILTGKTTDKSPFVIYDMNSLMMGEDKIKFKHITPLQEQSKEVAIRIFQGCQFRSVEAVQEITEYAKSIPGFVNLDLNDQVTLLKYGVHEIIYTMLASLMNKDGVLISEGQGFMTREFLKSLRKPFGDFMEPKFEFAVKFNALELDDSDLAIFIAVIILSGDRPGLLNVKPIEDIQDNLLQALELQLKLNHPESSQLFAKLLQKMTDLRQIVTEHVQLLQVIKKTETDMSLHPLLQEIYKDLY
The test can be described thus: Human PPARγ reporter assay (Indigo Biosciences kit). As to conditions: antagonist mode, agonist at ~EC80; read-out: PPARγ. The method, then: as §1, §2

Turning to `CCOc1ccc(-c2ccc(CCCc3nn(-c4ccc(C(F)(F)F)cc4)c(=O)n3-c3ccccc3F)cc2C)cc1CC(=O)O` [Example 9, 2-(4-ethoxy-4′-(3-(4-(2-fluorophenyl)-5-oxo-1-(4-(trifluoromethyl)phenyl)-4,5-dihydro-1H-1,2,4-triazol-3-yl)propyl)-2′-methyl-[1,1% biphenyl]-3-yl)acetic acid], the IC50 came to 250 nM in test [1], 312 nM in test [2] and 39800 nM in test [3].

On to `CCOc1ccc(-c2ccc(CCCc3nn(-c4ccc(C(F)(F)F)cc4)c(=O)n3-c3ccccc3F)cc2C)cc1C(=O)O` [Example 11, 4-ethoxy-4′-(3-(4-(2-fluorophenyl)-5-oxo-1-(4-(trifluoromethyl)phenyl)-4,5-dihydro-1H-1,2,4-triazol-3-yl)propyl)-2′-methyl-[1,1% biphenyl-]-3-carboxylic acid], for which the figures for the IC50 in test [1], in test [2] and in test [3] were 42 nM, 124 nM and 24800 nM, respectively.

Regarding `CCCn1c(CCCc2ccc(-c3cccc(NS(=O)(=O)c4ccccc4)n3)cc2)nn(-c2ccc(C(F)(F)F)cc2)c1=O` [Example 13, N-(6-(4-(3-(5-oxo-4-propyl-1-(4-(trifluoromethyl)phenyl)-4,5-dihydro-1H-1,2,4-triazol-3-yl)propyl)phenyl)pyridin-2-yl)benzenesulfonamide], the IC50 in test [1] is 182 nM; in test [2] it was 1160 nM; in test [3], above 100000 nM.

On to `CCOc1ccc(-c2ccc(CCCc3nn(-c4ccc(C(F)(F)F)cc4)c(=O)n3CC(C)C)cc2)cc1CC(=O)O` [Example 20], for which the IC50 in test [1] came to 150 nM; in test [2] it was 363 nM; in test [3] it was 32900 nM.

For the molecule `CCOc1ccc(-c2ccc(CCCc3nn(-c4ccc(C(F)(F)F)cc4)c(=O)n3C3CCCCC3C)cc2)cc1CC(=O)O` (stereo not drawn) [Example 7], the IC50 in test [1] worked out at 324 nM; in test [2], 220 nM; in test [3], 19400 nM.

Consider `CCOc1ccc(-c2ccc(CCCc3nn(-c4ccc(C(F)(F)F)cc4)c(=O)n3-c3cccc(F)c3)cc2)cc1CC(=O)O` [Example 21], for which the values for the IC50 in test [1], in test [2] and in test [3] were 30 nM, 67 nM and 55200 nM, respectively.

`CCOc1ccc(-c2cccc(CCCc3nn(-c4ccc(C(F)(F)F)cc4)c(=O)n3-c3ccccc3F)c2)cc1CC(=O)O` [Example 30, 2-(4-ethoxy-3′-(3-(4-(2-fluorophenyl)-5-oxo-1-(4-(trifluoromethyl)phenyl)-4,5-dihydro-1H-1,2,4-triazol-3-yl)propyl)-[1,1′-biphenyl]-3-yl)acetic acid]: the IC50 in test [1] is 386 nM; in test [2], 96 nM; in test [3], 27600 nM.

Turning to `CCOc1ccc(-c2ccc(CCCc3nn(-c4ccc(C(F)(F)F)cc4)c(=O)n3-c3ccccc3Cl)cc2)cc1CC(=O)O` [Example 19], the IC50 in test [1] was found to be 31 nM; in test [2], 32 nM; in test [3], 22300 nM.

In the case of `COc1ccc(-c2ccc(CCCc3nn(-c4ccc(C(F)(F)F)cc4)c(=O)n3C3CC3)cc2)cc1CC(=O)O` [Example 14, 2-(4′-(3-(4-cyclopropyl-5-oxo-1-(4-(trifluoromethyl)phenyl)-4,5-dihydro-1H-1,2,4-triazol-3-yl)propyl)-4-methoxy-[1,1′-biphenyl]-3-yl)acetic acid], the IC50 in test [1] was found to be 108 nM; in test [2], 697 nM; in test [3] it was 53100 nM.
